Laboratory results reported in patent publication US12509451B2, “Heteroaryl amide inhibitors of CD38” (NAPA THERAPEUTICS LTD., priority 2020, dated 2025).
Values joined by “and” are separate entries in the source; they are usually repeats but may differ in a detail not shown here. Equal entries are not always repeated.

Experiments:
[1] = target: T1, human CD38 enzyme in primary human M1 macrophages (Homo sapiens, UniProt P28907); experiment: NAD+ hydrolase activity assay in primary human M1 macrophages; format: cell-based; conditions: primary human M1 macrophages (LPS stimulated)
T1 construct: The assay utilized whole primary human macrophages (from healthy donors); endogenous in cells; host or cells: primary human macrophages from healthy donors, LPS-stimulated (M1)
T1 sequence (P28907 1-300): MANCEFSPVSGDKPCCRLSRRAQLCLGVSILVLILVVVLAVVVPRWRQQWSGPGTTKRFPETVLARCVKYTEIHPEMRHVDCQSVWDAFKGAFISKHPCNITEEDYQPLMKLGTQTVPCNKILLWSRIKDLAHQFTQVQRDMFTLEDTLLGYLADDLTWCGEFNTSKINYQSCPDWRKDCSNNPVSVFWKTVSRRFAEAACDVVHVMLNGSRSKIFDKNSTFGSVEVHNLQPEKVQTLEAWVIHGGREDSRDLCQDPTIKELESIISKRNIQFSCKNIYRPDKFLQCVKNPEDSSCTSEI
Method: The in vitro potency of Compound 35 against the human CD38 enzyme was determined by a fluorescence-based NAD+ hydrolase activity assay using the NAD+ analog nicotinamide 1,N^6-etheno-adenine dinucleotide (εNAD+) as substrate. The assay utilized: 1) whole primary human CD4+ T cells (from healthy donors) activated with anti-CD3/CD28 antibodies and expressing human CD38; or II) whole primary human macrophages (from healthy donors) stimulated with LPS to polarize in a pro-inflammatory M1 state expressing human CD38. The cells were incubated in the presence of 8 different concentrations of Compound 35 for 10 minutes and the reaction was started adding the substrate εNAD+. The emission of fluorescence was measured at 410-20 nm at 37° C. every minute for 1 hr. The NAD+ hydrolase activity was calculated as the slope of the linear portion of the fluorescence-time curve and used to calculate the IC50 value.
The in vitro potency of Compound 32 against the human CD38 enzyme was determined by a fluorescence-based NAD+ hydrolase activity assay using the NAD+ analog nicotinamide 1,N6-etheno-adenine dinucleotide (εNAD+) as substrate. The assay utilized whole primary human macrophages (from healthy donors) stimulated with LPS to polarize in a pro-inflammatory M1 state expressing human CD38. […] The emission of fluorescence was measured at 410-20 nm at 37° C. every minute for 1 hr. The NAD+ hydrolase activity was calculated as the slope of the linear portion of the fluorescence-time curve and used to calculate the IC50 value.
The in vitro potency of Compound 39 against the human CD38 enzyme was determined by a fluorescence-based NAD+ hydrolase activity assay using the NAD+ analog nicotinamide 1,N6-etheno-adenine dinucleotide (εNAD+) as substrate. […] The emission of fluorescence was measured at 410-20 nm at 37° C. every minute for 1 hr. The NAD+ hydrolase activity was calculated as the slope of the linear portion of the fluorescence-time curve and used to calculate the IC50 value.

CD38 = target: T2, CD38 (Mus musculus, UniProt P56528); experiment: In vivo efficacy against CD38 in obese mice, acute oral administration, liver NAD+ metabolites
T2 construct: aged mice (male C57BL6/J, 22 months old) were fasted for 4 hr; from tissue; host or cells: C57BL6/J mice (aged, DIO obese or LPS-challenged); liver, spleen, plasma
T2 sequence (P56528 1-304): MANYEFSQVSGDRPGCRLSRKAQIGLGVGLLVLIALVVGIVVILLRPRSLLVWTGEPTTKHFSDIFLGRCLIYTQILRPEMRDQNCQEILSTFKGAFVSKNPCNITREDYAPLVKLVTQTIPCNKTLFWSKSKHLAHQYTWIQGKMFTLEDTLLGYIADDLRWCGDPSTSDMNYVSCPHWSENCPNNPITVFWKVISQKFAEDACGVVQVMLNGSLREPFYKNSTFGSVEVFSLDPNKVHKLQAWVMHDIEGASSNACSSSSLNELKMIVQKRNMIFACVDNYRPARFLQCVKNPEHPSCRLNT

[2] = target: T3, recombinant mouse CD38 Protein (Mus musculus, UniProt P56528); experiment: Fluorescence-based NAD+ cyclase activity assay with mouse recombinant CD38 protein (Assay 4); format: biochemical; conditions: read-out: Assay 4 Arithmetic mean IC50
T3 construct: purchased R&D System
T3 sequence (P56528 1-304): T2 sequence (P56528 1-304)
Method: This protocol was modified from de Oliveira et al. (2018) supra.
NAD+ cyclase activity of the […] recombinant CD38 protein treated with test compounds was measured using a fluorescence-based assay. Briefly, recombinant mouse CD38 Protein (R&D System) was resuspended in 44 μl/well of Sucrose-Tris Buffer (Sucrose 0.25 M, Tris pH 7.4 40 mM) and plated in a 96-well black plate (CORNING) at a density of 32 ng/well.
Each test compound was received in a powder state and dissolved in DMSO as a 25 mM stock solution. Each test compound was serially diluted in order to generate a dose-response curve. The dilution series of each test compound in DMSO was prepared at 50 times the concentrations to be assayed. Each test compound was diluted to generate a 5-fold dilution series of 8 concentrations from 100 μM to 32 nM in order to assay 8 final concentrations ranging from 2 μM to 0.64 nM. One μl of the 50× concentration compound series was added to each well of the plate containing 125 ng of protein in Sucrose-Tris buffer.
Each plate had the following intra plate controls: 3 wells containing cells treated with vehicle only (DMSO), 3 wells of cells treated with the reference compounds 78c at a final concentration of 500 nM and 2 wells containing only Sucrose-Tris buffer (used as a background value).
The reaction was started adding nicotinamide guanine dinucleotide (NGD+) (Sigma Aldrich) to reach a final concentration of 150 µM. The samples were excited at 337-15 nm and the emission of fluorescence was measured at 442-20 nm at 37° C. every minute for 1 hr in a Clariostar® microplate reader (BMG LABTECH). NAD+ cyclase activity was calculated as the slope of the linear portion of the fluorescence-time curve using the MARS data analysis software (BMG LABTECH). The data were uploaded in the Collaborative Drug Design (CDD) Software and for each compound the IC50 was calculated by the software. Each compound was tested in 3 independent experiments on 3 separate days to establish the reproducibility of the results. For each plate, the z-factor was also calculated as a plate quality using the CDD software.

[3] = single 10 mg/kg oral dose, 1 hour post administration
[4] = single 1 mg/kg and 10 mg/kg oral dose

Which IC50 [1] does the source give for O=C(Nc1ccnc(C(F)(F)F)c1)c1cc(OC2CC2)cc(-n2ccnc2)n1 [Compound 32, 4-cyclopropoxy-6-(1H-imidazol-1-yl)-N-(2-(trifluoromethyl)pyridin-4-yl)picolinamide] here?
Its IC50 is 3.5 nM and 3.49 nM.

And the “ADPR levels in liver” value (CD38; single 3 mg/kg oral dose)?
Its value is “decrease”.

What about the “NAD+ levels in liver” value (CD38; single 3 mg/kg oral dose) of the same compound?
Its value is “increase”.

And the “NAM levels in liver” value (CD38; single 3 mg/kg oral dose)?
Its value is “decrease”.

And the “NMN levels in liver” value (CD38; single 3 mg/kg oral dose)?
The value was “increase”.

What about the “ADPR levels in liver” value (CD38; [3]) of the same compound?
The value was “decrease”.

What about the “NAD+ levels in liver” value (CD38; [3]) of the same compound?
The value was “remarkably increase”.

What about the “NAM levels in liver” value (CD38; [3]) of the same compound?
The value was “decrease”.

What about the “NMN levels in liver” value (CD38; [3]) of the same compound?
The value was “remarkably increase”.

For CN(C)CCOc1cc(C(=O)Nc2ccnc(C(F)(F)F)c2)nc(-n2ccnc2)c1 [Compound 33], which IC50 [2] is on record?
Its IC50 is 1 to 50 nM.

Which IC50 [2] does the source give for CC1(Oc2cc(C(=O)Nc3ccnc(C(F)(F)F)c3)nc(-n3ccnc3)c2)COC1 [Compound 34, 6-(1H-imidazol-1-yl)-4-((3-methyloxetan-3-yl)oxy)-N-(2-(trifluoromethyl)pyridin-4-yl)picolinamide] here?
Its IC50 is 51 to 1000 nM.

How did the IC50 [2] turn out when COc1cc(C(=O)Nc2ccnc(C(F)(F)F)c2)nc(-n2ccnc2)c1 [Compound 35, 6-(1H-imidazol-1-yl)-4-methoxy-N-(2-(trifluoromethyl)pyridin-4-yl)picolinamide] was run?
Its IC50 is 1 to 50 nM.

What about the IC50 [1] of the same compound?
The IC50 was 2.25 nM.

COc1cc(C(=O)Nc2ccnc(C(F)(F)F)c2)nc(-n2ccnc2)n1 [Compound 37, 2-(1H-imidazol-1-yl)-6-methoxy-N-(2-(trifluoromethyl)pyridin-4-yl)pyrimidine-4-carboxamide] was tested. Which IC50 [2] did it give?
Its IC50 is 51 to 1000 nM.

How did the IC50 [2] turn out when CCOc1cc(C(=O)Nc2ccnc(C(F)(F)F)c2)nc(-n2ccnc2)n1 [Compound 38] was run?
The IC50 was 51 to 1000 nM.

What does the source list for COCCOc1cc(C(=O)Nc2ccnc(C(F)(F)F)c2)nc(-n2ccnc2)n1 [Compound 39, 2-(1H-imidazol-1-yl)-6-(2-methoxyethoxy)-N-(2-(trifluoromethyl)pyridin-4-yl)pyrimidine-4-carboxamide]?
IC50 [2]: 1 to 50 nM; IC50 [1]: 3.9 nM and 3.92 nM; ADPR levels in liver (CD38; [4]): decrease; NAD+ levels in liver (CD38; [4]): increase; NAM levels in liver (CD38; [4]): decrease; NMN levels in liver (CD38; [4]): increase

O=C(Nc1ccnc(C(F)(F)F)c1)c1cc(OC2CC2)nc(-n2ccnc2)n1 [Compound 40] was tested. Which IC50 [2] did it give?
Its IC50 is 51 to 1000 nM.

Which IC50 [2] does the source give for O=C(Nc1ccnc(C(F)(F)F)c1)c1cc(C2CC2)nc(-n2ccnc2)n1 [Compound 51, 6-cyclopropyl-2-(1H-imidazol-1-yl)-N-(2-(trifluoromethyl)pyridin-4-yl)pyrimidine-4-carboxamide] here?
The IC50 was 1 to 50 nM.
